Measured values: patent US8569242B2, “Method of treating degenerative disorders of the nervous system” (The Regents of the University of California, priority 2005, dated 2013)
“And” between values parts separate entries of the source, which are not always exact repeats. Equal values may be shown once.

Assays:
primary microglia = assay: Morphometry of microglia activation (Isolectin B4 staining, cell size); format: cell-based, mouse
Method: Culture of primary microglia cells. Microglia were isolated from cultures of mixed cortical cells as described (59). In brief, cortices from P1 mice were isolated and digested with trypsin (0.4%) for 20 minutes at 37° C. Cells from 4 pups were plated onto PDL-coated 75 cm2 tissue-culture flasks. The culture medium (DMEM, 10% heat-inactivated FBS, and 1% Pen/Strep) was changed on day 2. After 2-3 weeks in culture, the microglia were removed by the addition of 12 mM lidocaine (Sigma-Aldrich, St. Louis, Mo.) and orbital shaking (180 rpm) for 20 minutes at 37° C. The cells were centrifuged (350×G) and the pellet was resuspended in complete medium and plated onto PDL-coated tissue culture dishes. Microglia cell cultures were >95% pure as determined with three different markers, IsoB4, IBA-1 and CD11b. To immobilize fibrinogen, tissue culture dishes were incubated overnight with 50 μg/mL fibrinogen (Calbiochem, San Diego, Calif.) in 20 mM Tris (pH 7.5) and 0.1 M NaCl at 37° C. for all fibrinogen treatments. To serve as positive controls, LPS (Sigma-Aldrich, St. Louis, Mo.) was added to the media at 1 μg/mL.
Morphometry. Primary microglia were used for all morphologic analysis. Cells were plated on coated fibrinogen or in the presence of LPS for 72 hours. Microglia were fixed with methanol and immunostained with Isolectin B4 (1:300, Sigma-Aldrich, St. Louis, Mo.). Activated microglia were quantificated as those cells larger than 2,000 μm^2. Blocking experiments involved the daily administration of rat anti-CD11b (10 μg/mL, eBioscience, San Diego, Calif.), γ^377-395 peptide (200 μM) or rat IgG (10 μg/mL, Jackson ImmunoResearch Laboratories, West Grove, Pa.). Results were obtained from six separate experiments performed in duplicates. 250 cells per condition were counted for each individual experiment. Statistical calculations were made by using Student's t test.

[1] = test system: primary murine microglia and a murine microglia cell line (BV2); assay: Vybrant phagocytosis assay in microglia; format: cell-based, mouse; details: fluorescent E. coli; stimulation with immobilized fibrinogen or LPS
Method: Phagocytosis assay. Phagocytosis assays were performed on both primary murine microglia and a murine microglia cell line (BV2). BV2 cells are an established cell line used to study microglia responses (46). BV2 cells were routinely passaged in DMEM, 20% heat inactivated FBS, and 1% Pen/Strep. Microglia phagocytosis was assessed using the Vybrant phagocytosis assay kit (Molecular Probes, Eugene, Oreg.) according to the manufacturer's recommendations. Microglia were cultured in 96-well plates at 5,000 cells/well for 36 hours at 37° C. Blocking experiments included the addition of LY294002 (1 μM, Cell Signaling, Beverly, Mass.), rat anti-CD11b ([…], eBioscience, San Diego, Calif.), rat anti-TLR4 (10 μg/mL, eBioscience, San Diego, Calif.) or rat IgG (10 μg/mL, Jackson ImmunoResearch Laboratories, West Grove, Pa.) to the media. Results were obtained from four separate experiments performed in triplicates. Statistical calculations were made by using Student's t-test.

RhoA = RhoA activation (GST-Rhotekin pull-down, immunoblot) in microglia; format: cell-based, mouse; details: fibrinogen 6 hours, LPS 10 minutes; densitometry
Method: (§1) Immunoblots. Western blots were performed using standard protocols (55). Microglia were serum-starved overnight and plated on fibrinogen or with LPS for 6 hours. Lysates were electrophoresed on 4-12% gradient SDS-PAGE gels and probed with phospho and total Akt antibodies (1:1000, Cell Signaling, Beverly, Mass.). RhoA activation was performed as described (60). Briefly, 2×107 microglia were plated on fibrinogen for 6 hours or with LPS for 10 minutes. Cell lysates were incubated with GST-Rhotekin agarose beads (kindly provided by Dr. Joan Heller Brown, UCSD) for 45 minutes at 4° C. The beads were washed, resuspended in Laemmli sample buffer, and electophoresed on a 15% SDS-PAGE gel. Activated and total Rho were detected with mouse anti-RhoA (1:500, Santa Cruz Biotechnology, Santa Cruz, Calif.). Densitometry was performed using the NIH Scion Image software using three blots from three separate experiments.

Akt = Akt phosphorylation immunoblot in microglia; format: cell-based, mouse; details: fibrinogen or LPS 6 hours; densitometry
Method: as §1

fibrin = molecular target: T1, fibrin (Mus musculus, UniProt E9PV24+Q8K0E8+Q8VCM7); assay: In vitro fibrin polymerization turbidity assay in plasma; format: biochemical; details: citrate plasma, bovine thrombin 0.2 U/ml, OD350
T1 construct: from tissue; host or cells: citrated mouse plasma, diluted tenfold
T1 sequence (Q8VCM7 26-436): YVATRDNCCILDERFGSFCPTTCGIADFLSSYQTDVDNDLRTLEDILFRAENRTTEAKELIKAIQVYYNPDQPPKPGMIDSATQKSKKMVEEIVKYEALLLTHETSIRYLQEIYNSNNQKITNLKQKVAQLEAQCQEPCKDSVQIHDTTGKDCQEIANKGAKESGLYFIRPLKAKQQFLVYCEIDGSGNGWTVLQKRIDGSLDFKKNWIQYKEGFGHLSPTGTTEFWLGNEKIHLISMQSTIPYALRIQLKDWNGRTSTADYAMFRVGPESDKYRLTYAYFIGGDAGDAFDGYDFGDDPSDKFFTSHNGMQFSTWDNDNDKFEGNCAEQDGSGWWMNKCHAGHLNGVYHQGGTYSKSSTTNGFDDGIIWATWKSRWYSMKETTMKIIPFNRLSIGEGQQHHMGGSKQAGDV
T1 sequence (E9PV24 37-789 limits assumed): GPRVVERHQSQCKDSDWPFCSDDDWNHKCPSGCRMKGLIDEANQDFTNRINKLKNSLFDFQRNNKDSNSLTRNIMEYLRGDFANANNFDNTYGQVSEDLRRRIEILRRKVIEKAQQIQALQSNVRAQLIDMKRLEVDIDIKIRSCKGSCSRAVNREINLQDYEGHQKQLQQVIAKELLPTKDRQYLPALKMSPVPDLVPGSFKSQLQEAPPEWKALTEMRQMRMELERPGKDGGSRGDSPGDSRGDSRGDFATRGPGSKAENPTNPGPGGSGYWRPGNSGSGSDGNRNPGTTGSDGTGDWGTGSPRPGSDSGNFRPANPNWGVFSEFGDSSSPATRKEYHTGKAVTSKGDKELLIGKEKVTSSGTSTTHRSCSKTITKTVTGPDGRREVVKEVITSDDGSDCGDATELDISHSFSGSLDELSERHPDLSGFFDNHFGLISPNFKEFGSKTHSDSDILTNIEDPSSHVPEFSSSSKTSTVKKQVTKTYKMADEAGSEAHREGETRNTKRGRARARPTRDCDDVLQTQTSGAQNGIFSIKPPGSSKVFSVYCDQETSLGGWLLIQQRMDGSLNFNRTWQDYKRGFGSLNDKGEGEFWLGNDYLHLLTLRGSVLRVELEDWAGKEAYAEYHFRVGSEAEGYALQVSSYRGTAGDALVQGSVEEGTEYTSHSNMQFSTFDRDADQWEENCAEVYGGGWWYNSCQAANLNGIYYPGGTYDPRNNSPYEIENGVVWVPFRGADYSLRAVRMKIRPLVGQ
T1 sequence (Q8K0E8 35-481 limits assumed): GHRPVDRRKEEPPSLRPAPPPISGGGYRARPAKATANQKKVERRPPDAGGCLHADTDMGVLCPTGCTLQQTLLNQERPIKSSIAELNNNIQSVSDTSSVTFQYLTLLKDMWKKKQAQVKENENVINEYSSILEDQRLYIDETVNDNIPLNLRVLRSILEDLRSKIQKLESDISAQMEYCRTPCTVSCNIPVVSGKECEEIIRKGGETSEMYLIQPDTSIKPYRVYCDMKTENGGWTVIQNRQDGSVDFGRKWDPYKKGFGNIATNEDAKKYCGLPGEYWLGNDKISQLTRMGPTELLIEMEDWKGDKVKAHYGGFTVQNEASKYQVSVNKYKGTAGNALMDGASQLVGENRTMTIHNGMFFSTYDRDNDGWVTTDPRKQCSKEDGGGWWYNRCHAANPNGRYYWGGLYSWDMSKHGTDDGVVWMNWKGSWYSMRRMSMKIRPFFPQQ
Method: Hematological Analyses. Citrated plasma was prepared from mice administered intranasally 30 μg or 90 μg of γ^377-395 peptide or saline control daily for seven days. Plasma clotting times were measured by combining 10 μl of citrated plasma with 10 μl of 2 U/ml bovine thrombin (Enzyme Research Laboratories, South Bend, Ind., USA) and 40 mM. CaCl2 in a weigh boatfloating in a 37° C. water bath. Time to clot was determined by mixing with a toothpick. Plasma thrombin times were established as described previously (15). Fibrin polymerization was evaluated by standard turbidity assays using plasma. Briefly, citrate plasma (diluted tenfold in 20 mM HEPES, pH 7.4, containing 0.15 M NaCl and 5 mM-amino caproic acid) was combined with bovine thrombin (final concentration 0.2 U/ml; Enzyme Research Laboratories, South Bend, Ind., USA), and Ca^2+ (10 mM), and OD350 measurements were taken every 30 seconds.

Question: Which results are given for Fibrinogen?
Answer: changes in microglia morphology (primary microglia; soluble, not immobilized, fibrinogen, data not shown): did not induce changes in microglia morphology; % of activated microglia (primary microglia; stimulation with immobilized fibrinogen alone, 72 hours, activated = cells larger than 2,000 μm^2): 85.5±1.4% and 71±4.9%; increase in phagocytosis as compared to untreated controls [1]: 65.3%; increase of active RhoA (RhoA): 1.9 fold; increase in Akt phosphorylation (Akt): 24 fold

Question: For GPRP [GPRP peptide, reference compound], which “effect on fibrin polymerization” value (fibrin) is on record?
Answer: inhibits

Question: What about the “effect on fibrin polymerization” value (fibrin; listed as GPRP) of the same substance?
Answer: significantly attenuated

Question: Which results are given for “Lipopolysaccharide [LPS, reference compound]”?
Answer: increase in phagocytosis as compared to untreated controls [1]: 39.1%; increase of active RhoA (RhoA): 2.4 fold; increase in Akt phosphorylation (Akt): 34 fold
